Data reported in patent publication US8383125B2, “Antimicrobial protein” (Agriculture Victoria Services Pty, Limited, priority 2006, dated 2013).
Like-named read-outs stand apart in the source and are kept apart here. Where no end group is shown, it is not given here.

Key:
Bacillus subtilis = assay type: cell-based; settings: Table 1
[1] = tested on: Streptococcus equi equi (ATCC 9527); assay type: cell-based; settings: Table 1
[2] = tested on: Candida albicans (ATCC 753); assay type: cell-based; settings: Table 1
[3] = tested on: P. aeruginosa strain FADDI 001; assay type: cell-based, Pseudomonas aeruginosa; settings: strain FADDI 001, 17 h
Procedure: (§1) The MIC values of SEQ ID NO: 2 and SEQ ID NO: 19 were also determined against a range of multidrug-resistant isolates, including clinical and laboratory strains. Peptides, maintained at −20° C. in solid form for storage purposes, were subsequently dissolved in 0.01% (v/v) acetic acid (Sigma-Aldrich) to a stock concentration of […]. The stock solutions were made fresh for each experiment. Eighteen (18) bacterial isolates obtained from the Facility for Anti-Infective Drug Development and Innovation, Victoria, Australia (FADDI) as listed in Table 2 were maintained as stock cultures in Tryptic Soya Broth plus 20% (v/v) glycerol at a temperature of −80° C., and subcultured onto Nutrient Agar for each experiment. MIC values were determined in cation-adjusted Mueller-Hinton broth (CAMHB) and Mueller-Hinton broth (MHB) using standard broth micro-dilution methods.

[4] = tested on: P. aeruginosa strain FADDI 002; assay type: cell-based, Pseudomonas aeruginosa; settings: strain FADDI 002, 17 h
Procedure: as §1

[5] = tested on: P. aeruginosa strain FADDI 003; assay type: cell-based, Pseudomonas aeruginosa; settings: strain FADDI 003, 17 h
Procedure: as §1

[6] = tested on: P. aeruginosa strain FADDI 004; assay type: cell-based, Pseudomonas aeruginosa; settings: strain FADDI 004, 17 h
Procedure: as §1

[7] = tested on: A. baumannii strain FADDI 005 (ATCC 19606 derivative); assay type: cell-based, Acinetobacter baumannii; settings: 17 hr at 35° C.
Procedure: as §1
Pseudomonas aeruginosa (ATCC 27853) and S. aureus (ATCC 43300) were included as quality controls in experiments. P. aeruginosa strains FADDI 001 and FADDI 002 are mucoid; and P. aeruginosa strains FADDI 003 and FADDI 004 are non-mucoid. P. aeruginosa strain FADDI 003 also has a small colony morphology. The A. baumannii strain FADDI 005 is a colistin-resistant isolate obtained from Mueller-Hinton agar containing 10 mg/L colistin.

[8] = tested on: A. baumannii strain FADDI 006; assay type: cell-based, Acinetobacter baumannii; settings: strain FADDI 006, 17 h
Procedure: as §1

[9] = tested on: A. baumannii strain FADDI 007; assay type: cell-based, Acinetobacter baumannii; settings: strain FADDI 007, 17 h
Procedure: as §1

[10] = tested on: K. pneumoniae strain FADDI 008; assay type: cell-based, Klebsiella pneumoniae; settings: strain FADDI 008, 17 h
Procedure: as §1

[11] = tested on: K. pneumoniae strain FADDI 009; assay type: cell-based, Klebsiella pneumoniae; settings: strain FADDI 009, 17 h
Procedure: as §1

[12] = tested on: K. pneumoniae strain FADDI 010; assay type: cell-based, Klebsiella pneumoniae; settings: strain FADDI 010, 17 h
Procedure: as §1

[13] = tested on: Enterococcus faecium (ATCC 700221); assay type: cell-based; settings: ATCC 700221, 17 h
Procedure: as §1

[14] = tested on: Staphylococcus aureus (ATCC 700698); assay type: cell-based; settings: ATCC 700698, 17 h
Procedure: as §1

S. aureus (ATCC 43300) = assay type: cell-based, Staphylococcus aureus; settings: ATCC 43300, 17 h
Procedure: as §1

S. aureus 700699 = assay type: cell-based, Staphylococcus aureus; settings: 700699, 17 h
Procedure: as §1

[15] = tested on: S. aureus strain FADDI 011; assay type: cell-based, Staphylococcus aureus; settings: strain FADDI 011, 17 h
Procedure: as §1

[16] = tested on: tammar wallaby erythrocytes; assay type: cell-based
Procedure: The toxicity of the antimicrobial peptides was determined using a haemolytic assay. In particular, the hemolytic activity of the peptides was determined using tammar wallaby erythrocytes. Fresh erythrocytes were harvested from heparinized blood taken from a tammar wallaby. Erythrocytes were harvested by centrifugation for 3 min at 3000 g. Erythrocytes were then washed three times with PBS (pH 7.4) until the supernatant was essentially colourless. 20 μl two fold serial dilutions of the peptide were mixed with the same volume of erythrocytes in solution 2%) in PBS of each well of a 96-plate. 80 μl PBS was added to each well after the plate was incubated at 37° C. for one hour. Plates were then centrifuged at 3000 g for 5 min. 90 μl of the resulting supernatant was transferred to a flat-bottom microtiter plate and haemoglobin release was monitored by measuring the absorbance at 414 nm with an ELISA plate reader. […] Each sample was performed in triplicate. Percentage hemolysis was calculated by the following formula: [(OD414 peptide−OD414 buffer)/OD414 complete hemolysis−OD414 buffer)]×100%.

E. coli DH5α = settings: 5 μl of 250 μg/ml solutions of each peptide; E. coli
Procedure: Briefly, approximately 4×10^6 of mid-logarithmic-phase organisms were grown on plates in 11 ml of warm 0.8% agarose containing 0.03% (w/v) Tryticase soy broth (TSB) powder, with or without 100 mM NaCl, buffered with 10 mM sodium phosphate, pH 7.4. The test peptide was serially diluted in acidified water (0.01% acetic acid), and 5 μl of diluted peptide sample was loaded in a 2.5 diameter well in the agarose. A 10 ml overlay gel composed of 6% TSB, 0.8% agarose and 10 mM sodium phosphate buffer (pH 7.4) was poured into each well. Plates were then incubated overnight to allow the surviving organisms to form microcolonies. The clear zone were measured to the nearest 0.1 mm using a magnified transilluminator and expressed in units (1 mm=10 U) after subtracting the well diameter. The minimum inhibitory concentration (MIC) is defined by the χ intercept of a regression line through zone diameters obtained from a series of serially diluted peptide samples.

[17] = tested on: Pseudomonas aeruginosa (ATCC 27853); set-up: key: resistant (R); susceptible (S); settings: Reference isolate; cited from earlier work
[18] = tested on: P. aeruginosa strain FADDI 001; set-up: key: resistant (R); susceptible (S); settings: Clinical specimen; cited from earlier work
[19] = tested on: P. aeruginosa strain FADDI 002; set-up: key: resistant (R); susceptible (S); settings: Clinical specimen; cited from earlier work
[20] = tested on: P. aeruginosa strain FADDI 003; set-up: key: resistant (R); susceptible (S); settings: Clinical specimen; cited from earlier work
[21] = tested on: P. aeruginosa strain FADDI 004; set-up: key: resistant (R); susceptible (S); settings: Clinical specimen; cited from earlier work
[22] = tested on: Acinetobacter baumannii (ATCC 19606); set-up: key: resistant (R); susceptible (S); settings: Reference isolate; cited from earlier work
[23] = tested on: A. baumannii strain FADDI 005 (ATCC 19606 derivative); set-up: key: resistant (R); susceptible (S); settings: Laboratory prepared; obtained from Mueller-Hinton agar containing 10 mg/L colistin; cited from earlier work
[24] = tested on: A. baumannii strain FADDI 006; set-up: key: resistant (R); susceptible (S); settings: Clinical specimen; cited from earlier work
[25] = tested on: A. baumannii strain FADDI 007; set-up: key: resistant (R); susceptible (S); settings: Clinical specimen; cited from earlier work
[26] = tested on: Klebsiella pneumoniae (ATCC 13883); set-up: key: resistant (R); susceptible (S); settings: Reference isolate; cited from earlier work
[27] = tested on: K. pneumoniae strain FADDI 008; set-up: key: resistant (R); susceptible (S); settings: Clinical specimen; cited from earlier work
[28] = tested on: K. pneumoniae strain FADDI 009; set-up: key: resistant (R); susceptible (S); settings: Clinical specimen; cited from earlier work
[29] = tested on: K. pneumoniae strain FADDI 010; set-up: key: resistant (R); susceptible (S); settings: Clinical specimen; cited from earlier work

KRGLWESLKRKATKLGDDIRNTLRNFKIKFPVPRQ-NH2 [SEQ ID NO: 19]
antimicrobial activity in words (Bacillus subtilis): moderately protective
antimicrobial activity in words [1]: moderately protective
antimicrobial activity in words [2]: Weaker antimicrobial activity
MIC [3]: >64 µg/mL
MIC [4]: >64 µg/mL
MIC [5]: >64 µg/mL
MIC [6]: >64 µg/mL
MIC ([7]; CAMHB (10.0 mg/L Mg2+ and 24 mg/L Ca2+)): 8 µg/mL
MIC ([7]; MHB (less than 5 mg/L Mg2+ and 24 mg/L Ca2+)): 16 µg/mL
MIC [8]: >64 µg/mL
MIC [9]: 16 µg/mL
MIC [10]: >64 µg/mL
MIC [11]: >64 µg/mL
MIC [12]: >64 µg/mL
MIC [13]: 16 µg/mL
MIC [14]: >64 µg/mL
MIC (S. aureus (ATCC 43300)): >64 µg/mL
MIC (S. aureus 700699): >64 µg/mL
MIC [15]: >64 µg/mL
haemolysis at the MIC determined in Example 1 [16]: less than 5%
haemolysis at the majority of concentrations tested (FIGS. 2a and 2b) [16]: did not cause substantial levels of haemolysis
radial clear zone compared to LL-37 (FIG. 3) (E. coli DH5α): larger radial clear zone

colistin
Colistin resistant (R) or susceptible (S) [17]: S
Colistin resistant (R) or susceptible (S) [18]: S
Colistin resistant (R) or susceptible (S) [19]: S
Colistin resistant (R) or susceptible (S) [20]: R
Colistin resistant (R) or susceptible (S) [21]: R
Colistin resistant (R) or susceptible (S) [22]: S
Colistin resistant (R) or susceptible (S) [23]: R
Colistin resistant (R) or susceptible (S) [24]: R
Colistin resistant (R) or susceptible (S) [25]: S
Colistin resistant (R) or susceptible (S) [26]: S
Colistin resistant (R) or susceptible (S) [27]: S
Colistin resistant (R) or susceptible (S) [28]: R
Colistin resistant (R) or susceptible (S) [29]: R
